# PMC2904697, “A Screen for Kinetochore-Microtubule Interaction Inhibitors Identifies Novel Antitubulin Compounds” (PLoS ONE, 2010)
# Where “and” joins values, the source holds several entries; their conditions need not be identical. Identical values can stand only once.
# Columns and labels:
# [1] = system: recombinant human Ndc80 kinetochore complex binding to taxol-stabilized microtubules; assay: Ndc80^488 complex-MT binding assay (fluorescence microscopy / TIRF); conditions: for Effect on binding of the Ndc80^488 complex to taxol-stabilized MTs: compound 50 µmol/l, wide-field fluorescence microscopy; for IC50: total internal reflection fluorescence microscopy, Ndc80^488 complex 0.1 µmol/l, taxol-stabilized MTs
# Source text: To screen compound libraries for molecules inhibiting binding of the outer kinetochore Ndc80 complex (Ndc80, Nuf2, Spc24, Spc25) to MTs, we used a fluorescence microscopy-based in vitro approach (Fig. 1). First, the recombinant human Ndc80 construct, used to crystallize the complex, was produced in Escherichia coli using a bicistronic plasmid from which the Nuf2-Spc24 and Ndc80-Spc25 peptides were generated (Fig. 1A). Following their intracellular assembly, the complex was purified from E. coli cell extract based on the GST tag at the N-terminus of Nuf2. The complex was released in solution with PreScission Protease (its recognition sequence was introduced between the GST tag and the NUF2 coding sequence) and was separated from contaminants by gel filtration chromatography (Fig. 1A). The high degree of purity of the preparation was confirmed by SDS-PAGE analysis and coomassie staining, which identified only both peptides (Fig. 1B). Next, the Ndc80 complex was fluorescently labeled with the Alexa Fluor 488 C5-maleimide (next named the Ndc80^488 complex) and was separated from unreacted fluorophore by gel filtration chromatography. The final preparation was highly pure as evidenced by gel filtration analysis and detection at 519 nm (emission maximum of the Alexa Fluor 488 dye) and at 280 nm (intrinsic protein fluorescence) (Fig. 1B). Next, the Ndc80^488 complex (0.1 µmol/l) was incubated with 10,200 compounds (comprising the Chembridge DIVERset and a compound collection from the Univ. Rome) at a starting concentration of 50 µmol/l. Binding (or lack thereof) of the complex to rhodamine-labeled taxol-stabilized MTs (0.1 µmol/l) was scored by wide-field fluorescence microscopy (Fig. 1C; images in Fig. 2A). […] Total internal reflection fluorescence microscopy was used to establish the IC50 value of the compound, which was measured to be ∼20 µmol/l (Fig. 2C).
# Recombinant human Ndc80 complex (Ndc80^Bonsai complex) was produced in Escherichia coli using a bicistronic expression plasmid (Fig. 1A, [12]). Following transcription from the TAC promoter/operator by induction with 0.4 mmol/l IPTG (20°C, 15 h), GST-Nuf2-Spc24 and Ndc80-Spc25 polypeptides were generated, which dimerized intracellulary into the GST-Ndc80 complex. The complex was isolated from E. coli cell extract following incubation with glutathione beads. The complex was released from the beads with PreScission Protease (GE Healthcare Life Sciences) and contaminants were removed by gel filtration chromatography (Superdex 200, GE Healthcare Life Sciences). On average 4 mg of Ndc80 complex were obtained from 1 liter of cell culture. Next, 1 mg Ndc80 complex was labeled with 0.1 mg Alexa Fluor 488 C5-maleimide fluorophore (Invitrogen) at a 1.5-2 stoichiometry. The fluorescent complex (Ndc80^488 complex) was separated from unreacted fluorophore by gel filtration chromatography (Fig. 1B) and was then used to screen for compounds inhibiting Ndc80^488 complex-MT binding (Fig. 1C). The Ndc80^488 complex is fully functional as it is recruited to and acts at kinetochores when injected into prometaphase HeLa cells.
# MTs were polymerized (30 min, 37°C) from a 1∶10 mixture of rhodamine-labeled:unlabeled bovine brain αβ-tubulin (Cytoskeleton) in BRB-80 buffer (80 mmol/l PIPES pH 6.8, 1 mmol/l MgCl2, 1 mmol/l EGTA) and were then stabilized with 20 µmol/l taxol. The Ndc80^488 complex (0.1 µmol/l) was incubated with 100 µmol/l compound (30 min, 24°C) in 96-well polypropylene plates (Eppendorf). The 10,000 compound DIVERset library (Chembridge) and 200 compounds from the Department of Medicinal Chemistry and Technologies, University of Rome La Sapienza were used in the screen. Next, the MTs (100 nmol/l) were added to the compound-Ndc80^488 complex solution in a 1∶1 v/v ratio. After incubation (10 min, 24°C), the reaction mixtures were transferred to 96-well glass-bottom plates (Greiner Bio-one). […]
# αβ-tubulin = assay: Tubulin polymerization tracked turbidimetrically at 350 nm; assay type: biochemical; conditions: for IC50: 10 µmol/l αβ-tubulin, GTP-containing buffer, turbidity 350 nm, read-out: IC50 for inhibition of tubulin polymerization
# Procedure: (§1) To quantify the antitubulin activity of compound B, we added 1–50 µmol/l compound B to 10 µmol/l αβ-tubulin. […] For this purpose, MTs were assembled from 10 µmol/l αβ-tubulin; 5 min into the reaction compound B was added in concentrations up to 200 µmol/l. MT depolymerization was tracked as a decrease in turbidity at 350 nm (Fig. 5B).
# (§2) Polymerization of 10 µmol/l αβ-tubulin in BRB-80 buffer was monitored turbidimetrically at 350 nm for 15 min in a temperature-controlled spectrophotometer (37°C; SpectraMax Plus^384, Molecular Devices). To probe the effect of a compound on MT stability the molecule was added 5 min after initiation of tubulin assembly. The decrease in protein turbidity (350 nm) resulting from MT depolymerization was followed for 15 min at 37°C [13]. Quantitative comparisons of drug effects on tubulin assembly were also examined in 0.8 M glutamate with a 15 min drug-tubulin preincubation prior to the addition of GTP [14]. Tubulin assembly was monitored for 20 min at 30°C in Beckman DU7400/7500 spectrophotometers, and the compound concentration inhibiting tubulin assembly by 50% was determined.
# [2] = system: MTs assembled from αβ-tubulin; assay: Depolymerization of non-stabilized MTs in vitro (turbidity at 350 nm); assay type: biochemical; conditions: for Fold difference between concentration inhibiting tubulin polymerization and that needed to disassemble MTs: Fig. 5B versus Fig. 5A
# Procedure: as §1, §2
IC50 [1],Fold more active than compound B in the Ndc80^488 complex-MT binding assay ([1]; versus compound B) [fold],"Fold lower IC50 for inhibiting tubulin assembly than that of compound B (αβ-tubulin; turbidimetric, versus compound B) [fold]",Compound,Effect on binding of the Ndc80^488 complex to taxol-stabilized MTs [1],IC50 (αβ-tubulin) [µM],Fold difference between concentration inhibiting tubulin polymerization and that needed to disassemble MTs [2],Fold more effective than compound B in inhibiting tubulin polymerization (αβ-tubulin; versus compound B) [fold],"Drug:tubulin molar ratio at which MT stability is affected / MT depolymerization induced ([2]; MTs from 10 µmol/l αβ-tubulin, compound added 5 min into the reaction)","Ability to depolymerize MTs, fold higher than that of compound B ([2]; non-stabilized MTs in vitro) [fold]","Ability to depolymerize MTs, higher than that of nocodazole ([2]; non-stabilized MTs in vitro) [%]"
~20 µM and 20 µM,,,"Cc1c(C(=O)OCC2CCCO2)[nH]c2c1C(=O)CC(c1ccco1)C2 (centres unmarked) [compound B, 6-furan-2-yl-3-methyl-4-oxo-4,5,6,7,-tetrahydro-1H-indole-2-carboxylic acid tetrahydro-furan-2-ylmethyl ester]",active,5.5,at least 40 fold,,,,
,,,"COC(=O)Nc1nc2ccc(C(=O)c3cccs3)cc2[nH]1 [nocodazole, reference compound]",did not prevent,[…],[…],[…],[…],,
~1 µM and 1 µM,~20,4.2,CCSCCOC(=O)c1[nH]c2c(c1C)C(=O)C[C@@H](c1ccco1)C2 [A8],,,,,,12,10
